This is an account of results in ChEMBL document CHEMBL5291721, “A preclinical secondary pharmacology resource illuminates target-adverse drug reaction associations of marketed drugs” (Nat Commun, 2023).

What is called AC50 is the concentration giving half of the maximal activity seen.

Test [1] deals with T1, Alpha-1A adrenergic receptor (Homo sapiens, UniProt P35348).
T1 sequence (P35348 whole entry): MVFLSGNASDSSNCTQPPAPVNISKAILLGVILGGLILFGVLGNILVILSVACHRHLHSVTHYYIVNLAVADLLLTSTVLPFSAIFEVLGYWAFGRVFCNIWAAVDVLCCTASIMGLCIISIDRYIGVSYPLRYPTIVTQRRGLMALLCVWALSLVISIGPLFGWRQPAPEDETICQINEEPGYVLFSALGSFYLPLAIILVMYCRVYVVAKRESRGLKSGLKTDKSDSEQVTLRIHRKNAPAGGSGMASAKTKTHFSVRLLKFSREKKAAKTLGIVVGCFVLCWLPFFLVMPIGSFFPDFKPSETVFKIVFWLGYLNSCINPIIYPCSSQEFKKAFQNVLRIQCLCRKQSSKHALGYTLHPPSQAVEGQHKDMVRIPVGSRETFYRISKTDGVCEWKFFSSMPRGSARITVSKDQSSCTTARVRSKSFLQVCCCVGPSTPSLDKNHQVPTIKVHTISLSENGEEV
It counts as functional, cell-based.

The target in a further test is T2, Androgen receptor (Homo sapiens, UniProt P10275).
T2 sequence (P10275 whole entry): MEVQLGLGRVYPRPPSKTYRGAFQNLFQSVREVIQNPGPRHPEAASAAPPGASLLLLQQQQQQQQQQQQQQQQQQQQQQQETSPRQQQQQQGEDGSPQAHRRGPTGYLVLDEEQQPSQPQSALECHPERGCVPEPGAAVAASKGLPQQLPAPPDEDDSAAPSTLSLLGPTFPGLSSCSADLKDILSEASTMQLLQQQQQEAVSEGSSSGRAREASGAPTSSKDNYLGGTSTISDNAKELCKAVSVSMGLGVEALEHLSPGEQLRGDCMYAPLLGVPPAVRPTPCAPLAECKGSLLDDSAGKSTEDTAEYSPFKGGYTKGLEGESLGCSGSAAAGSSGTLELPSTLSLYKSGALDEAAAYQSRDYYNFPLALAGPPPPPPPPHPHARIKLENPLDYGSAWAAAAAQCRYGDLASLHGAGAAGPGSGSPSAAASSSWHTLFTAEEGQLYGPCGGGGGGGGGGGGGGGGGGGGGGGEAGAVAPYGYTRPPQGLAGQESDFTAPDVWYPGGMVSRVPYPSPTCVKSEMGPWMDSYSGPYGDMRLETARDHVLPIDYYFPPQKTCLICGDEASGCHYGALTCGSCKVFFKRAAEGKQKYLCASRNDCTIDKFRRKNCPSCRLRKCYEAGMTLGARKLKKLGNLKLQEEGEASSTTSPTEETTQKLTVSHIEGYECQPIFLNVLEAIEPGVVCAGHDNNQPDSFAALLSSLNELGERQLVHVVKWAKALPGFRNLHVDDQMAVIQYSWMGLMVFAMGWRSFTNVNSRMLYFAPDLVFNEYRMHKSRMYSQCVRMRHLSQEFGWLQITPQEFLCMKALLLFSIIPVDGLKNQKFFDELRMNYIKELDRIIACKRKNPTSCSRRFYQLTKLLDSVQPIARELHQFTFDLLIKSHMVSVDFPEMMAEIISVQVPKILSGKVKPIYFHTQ

Test [2] addresses T3, Muscarinic acetylcholine receptor M1 (Homo sapiens, UniProt P11229).
T3 sequence (P11229 whole entry): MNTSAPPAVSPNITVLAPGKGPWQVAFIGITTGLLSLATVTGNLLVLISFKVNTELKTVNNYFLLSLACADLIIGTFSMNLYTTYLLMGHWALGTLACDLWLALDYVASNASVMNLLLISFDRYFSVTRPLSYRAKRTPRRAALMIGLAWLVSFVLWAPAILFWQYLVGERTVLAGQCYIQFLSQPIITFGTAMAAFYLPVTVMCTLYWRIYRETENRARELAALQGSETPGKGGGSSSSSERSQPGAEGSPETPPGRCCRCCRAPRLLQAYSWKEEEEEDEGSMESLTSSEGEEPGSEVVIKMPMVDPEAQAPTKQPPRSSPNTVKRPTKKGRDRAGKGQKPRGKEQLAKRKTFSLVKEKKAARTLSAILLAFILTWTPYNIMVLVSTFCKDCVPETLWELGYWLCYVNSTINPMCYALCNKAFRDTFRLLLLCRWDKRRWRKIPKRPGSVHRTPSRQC
It counts as functional, cell-based.

In the next test the target is D(3) dopamine receptor (Homo sapiens, UniProt P35462).
Another test addresses T4, Estrogen receptor (Homo sapiens, UniProt P03372).
T4 sequence (P03372 whole entry): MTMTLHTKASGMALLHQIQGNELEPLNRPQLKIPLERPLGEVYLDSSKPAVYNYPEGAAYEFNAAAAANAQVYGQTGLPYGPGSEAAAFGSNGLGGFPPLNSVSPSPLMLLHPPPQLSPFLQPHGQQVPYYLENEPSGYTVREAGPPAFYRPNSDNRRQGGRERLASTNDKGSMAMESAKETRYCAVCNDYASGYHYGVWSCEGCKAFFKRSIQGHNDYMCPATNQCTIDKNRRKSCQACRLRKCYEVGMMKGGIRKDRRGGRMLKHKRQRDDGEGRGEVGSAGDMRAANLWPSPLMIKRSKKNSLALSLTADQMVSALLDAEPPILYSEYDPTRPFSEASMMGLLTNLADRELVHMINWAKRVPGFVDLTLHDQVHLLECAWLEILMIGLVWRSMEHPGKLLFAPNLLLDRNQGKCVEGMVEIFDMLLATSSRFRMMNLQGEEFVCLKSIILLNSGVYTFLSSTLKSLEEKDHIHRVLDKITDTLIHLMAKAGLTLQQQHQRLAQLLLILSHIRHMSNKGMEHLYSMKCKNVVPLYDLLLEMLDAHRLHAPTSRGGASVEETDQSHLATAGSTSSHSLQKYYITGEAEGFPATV

For test [3], the target named is Gamma-aminobutyric acid receptor subunit alpha-1/alpha-2/beta-2/gamma-2 (Homo sapiens, UniProt P14867+P18507+P47869+P47870). It counts as protein-complex assay.
Test [4] concerns the target Beta-2 adrenergic receptor (Homo sapiens, UniProt P07550). It counts as functional, cell-based.
Test [5] addresses Gamma-aminobutyric acid receptor subunit alpha-1 (Rattus norvegicus, UniProt P62813).
The next test concerns the target Histamine H1 receptor (Homo sapiens, UniProt P35367).
Note: assay procedure not described here.

D(3) dopamine receptor, sequence (P35462 whole entry): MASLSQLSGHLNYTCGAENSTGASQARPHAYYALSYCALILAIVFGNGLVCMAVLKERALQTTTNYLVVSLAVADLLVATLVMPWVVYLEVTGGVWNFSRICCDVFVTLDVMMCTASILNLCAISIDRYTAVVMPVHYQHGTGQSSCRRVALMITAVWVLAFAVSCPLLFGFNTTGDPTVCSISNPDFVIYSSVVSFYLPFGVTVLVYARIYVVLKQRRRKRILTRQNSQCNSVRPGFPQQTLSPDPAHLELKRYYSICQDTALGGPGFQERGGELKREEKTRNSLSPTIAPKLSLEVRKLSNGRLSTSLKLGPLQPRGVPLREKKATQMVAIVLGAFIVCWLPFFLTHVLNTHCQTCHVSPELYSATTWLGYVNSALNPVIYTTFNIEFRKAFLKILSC
Gamma-aminobutyric acid receptor subunit alpha-1/alpha-2/beta-2/gamma-2, sequence (P14867 whole entry): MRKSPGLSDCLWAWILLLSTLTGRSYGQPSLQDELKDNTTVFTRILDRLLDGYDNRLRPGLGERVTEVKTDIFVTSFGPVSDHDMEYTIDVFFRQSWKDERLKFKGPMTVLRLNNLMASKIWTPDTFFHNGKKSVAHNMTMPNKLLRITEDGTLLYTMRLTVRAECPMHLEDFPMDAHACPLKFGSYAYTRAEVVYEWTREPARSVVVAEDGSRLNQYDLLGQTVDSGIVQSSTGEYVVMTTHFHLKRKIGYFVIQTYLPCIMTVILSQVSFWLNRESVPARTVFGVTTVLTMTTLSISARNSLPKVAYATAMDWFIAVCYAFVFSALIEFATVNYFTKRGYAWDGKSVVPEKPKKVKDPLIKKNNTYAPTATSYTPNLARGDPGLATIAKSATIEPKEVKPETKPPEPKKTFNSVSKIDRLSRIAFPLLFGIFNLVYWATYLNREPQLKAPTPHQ
Gamma-aminobutyric acid receptor subunit alpha-1/alpha-2/beta-2/gamma-2, sequence (P47870 whole entry): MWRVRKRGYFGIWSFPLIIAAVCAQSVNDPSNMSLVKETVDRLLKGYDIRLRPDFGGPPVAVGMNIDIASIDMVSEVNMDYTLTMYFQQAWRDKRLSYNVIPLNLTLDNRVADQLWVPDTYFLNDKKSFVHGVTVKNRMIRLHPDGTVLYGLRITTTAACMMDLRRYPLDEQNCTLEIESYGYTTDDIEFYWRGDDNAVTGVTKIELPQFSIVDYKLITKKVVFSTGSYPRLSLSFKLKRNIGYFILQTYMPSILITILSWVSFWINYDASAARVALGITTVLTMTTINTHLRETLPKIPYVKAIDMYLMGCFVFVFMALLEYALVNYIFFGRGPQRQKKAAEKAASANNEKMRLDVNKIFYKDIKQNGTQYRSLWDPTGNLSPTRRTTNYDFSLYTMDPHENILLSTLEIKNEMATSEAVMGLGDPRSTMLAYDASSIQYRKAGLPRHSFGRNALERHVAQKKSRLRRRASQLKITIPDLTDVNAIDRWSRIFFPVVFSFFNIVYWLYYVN
Gamma-aminobutyric acid receptor subunit alpha-1/alpha-2/beta-2/gamma-2, sequence (P18507 whole entry): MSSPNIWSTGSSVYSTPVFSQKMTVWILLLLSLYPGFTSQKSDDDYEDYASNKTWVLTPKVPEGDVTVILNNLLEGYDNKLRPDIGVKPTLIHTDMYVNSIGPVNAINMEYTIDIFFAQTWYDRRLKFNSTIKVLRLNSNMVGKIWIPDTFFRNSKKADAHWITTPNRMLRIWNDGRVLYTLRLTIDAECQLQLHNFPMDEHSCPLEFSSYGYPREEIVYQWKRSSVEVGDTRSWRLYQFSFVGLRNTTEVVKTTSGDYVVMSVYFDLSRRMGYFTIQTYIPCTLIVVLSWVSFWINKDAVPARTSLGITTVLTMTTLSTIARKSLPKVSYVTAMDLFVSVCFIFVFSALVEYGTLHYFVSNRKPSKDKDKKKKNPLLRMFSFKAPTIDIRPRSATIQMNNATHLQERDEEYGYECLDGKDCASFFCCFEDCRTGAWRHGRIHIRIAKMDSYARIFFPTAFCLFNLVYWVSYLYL
Gamma-aminobutyric acid receptor subunit alpha-1/alpha-2/beta-2/gamma-2, sequence (P47869 whole entry): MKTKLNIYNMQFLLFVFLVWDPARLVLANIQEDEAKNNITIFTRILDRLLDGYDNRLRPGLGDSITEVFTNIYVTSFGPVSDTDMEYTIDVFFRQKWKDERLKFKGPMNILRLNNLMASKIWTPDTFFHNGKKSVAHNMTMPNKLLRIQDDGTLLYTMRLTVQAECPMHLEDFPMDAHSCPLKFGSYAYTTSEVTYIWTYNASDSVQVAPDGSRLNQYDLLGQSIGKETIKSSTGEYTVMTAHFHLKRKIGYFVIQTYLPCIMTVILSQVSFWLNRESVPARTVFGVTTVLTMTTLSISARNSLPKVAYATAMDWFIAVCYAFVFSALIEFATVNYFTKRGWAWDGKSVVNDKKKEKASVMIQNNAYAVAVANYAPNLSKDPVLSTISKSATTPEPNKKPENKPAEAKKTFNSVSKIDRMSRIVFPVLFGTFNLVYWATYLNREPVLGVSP
Gamma-aminobutyric acid receptor subunit alpha-1, sequence (P62813 whole entry): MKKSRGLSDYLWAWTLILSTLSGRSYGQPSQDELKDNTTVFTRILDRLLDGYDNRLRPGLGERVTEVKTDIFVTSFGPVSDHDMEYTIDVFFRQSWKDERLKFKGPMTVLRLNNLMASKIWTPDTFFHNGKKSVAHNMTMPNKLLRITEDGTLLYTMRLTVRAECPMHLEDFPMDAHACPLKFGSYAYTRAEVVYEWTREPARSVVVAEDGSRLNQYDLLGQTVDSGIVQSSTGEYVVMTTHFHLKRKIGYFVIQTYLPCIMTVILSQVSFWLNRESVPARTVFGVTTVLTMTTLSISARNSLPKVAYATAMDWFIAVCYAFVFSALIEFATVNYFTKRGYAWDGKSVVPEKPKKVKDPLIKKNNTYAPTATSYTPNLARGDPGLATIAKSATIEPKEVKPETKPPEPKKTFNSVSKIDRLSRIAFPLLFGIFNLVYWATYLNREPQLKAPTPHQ
Histamine H1 receptor, sequence (P35367 whole entry): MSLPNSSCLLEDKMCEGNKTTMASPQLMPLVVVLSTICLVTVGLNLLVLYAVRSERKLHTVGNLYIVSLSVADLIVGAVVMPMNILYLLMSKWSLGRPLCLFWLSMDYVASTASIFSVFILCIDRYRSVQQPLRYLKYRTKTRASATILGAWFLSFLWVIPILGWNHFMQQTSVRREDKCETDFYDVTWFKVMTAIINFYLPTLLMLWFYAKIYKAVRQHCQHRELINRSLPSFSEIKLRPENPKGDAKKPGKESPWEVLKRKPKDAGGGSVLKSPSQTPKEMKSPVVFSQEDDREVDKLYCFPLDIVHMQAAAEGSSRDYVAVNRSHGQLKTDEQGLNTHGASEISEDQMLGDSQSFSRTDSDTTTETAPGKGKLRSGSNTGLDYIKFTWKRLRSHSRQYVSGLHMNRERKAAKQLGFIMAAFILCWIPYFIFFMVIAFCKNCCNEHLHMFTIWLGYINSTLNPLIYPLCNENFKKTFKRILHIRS
Beta-2 adrenergic receptor, sequence (P07550 whole entry): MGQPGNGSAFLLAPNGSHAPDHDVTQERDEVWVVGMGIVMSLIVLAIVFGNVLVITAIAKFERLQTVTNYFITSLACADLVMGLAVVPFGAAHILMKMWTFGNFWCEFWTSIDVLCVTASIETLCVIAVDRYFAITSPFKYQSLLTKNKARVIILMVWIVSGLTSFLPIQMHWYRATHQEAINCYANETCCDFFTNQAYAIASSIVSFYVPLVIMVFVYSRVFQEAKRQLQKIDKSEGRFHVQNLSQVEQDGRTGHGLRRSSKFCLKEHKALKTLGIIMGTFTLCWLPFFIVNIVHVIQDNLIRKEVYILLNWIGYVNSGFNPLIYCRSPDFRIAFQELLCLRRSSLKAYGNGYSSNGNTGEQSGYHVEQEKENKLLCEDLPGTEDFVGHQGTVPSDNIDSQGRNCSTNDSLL

As for `CC(=O)[C@@]1(O)CC[C@H]2[C@@H]3C=C(C)C4=CC(=O)CC[C@]4(C)[C@H]3CC[C@@]21C`, the AC50 was > 30 µM in test [1]; 0.0119 µM at Androgen receptor; 15.3 µM in test [2]; > 30 µM at D(3) dopamine receptor; > 30 µM at Estrogen receptor; > 30 µM in test [3].

With `CC(C)(C)N1CCC(c2ccccc2)(c2ccccc2)CC1` [BUDIPINE], the AC50 in [1] is > 30 µM; at Androgen receptor, > 30 µM; in test [2], 0.57 µM; at D(3) dopamine receptor, > 30 µM; on Estrogen receptor, > 30 µM; in test [3], > 30 µM.

Consider `NC1CCN(c2c(F)cc3c(=O)c(C(=O)O)cn(C4CC4)c3c2Cl)C1` (stereo not given) [CLINAFLOXACIN], for which the AC50 (in test [1]; on Androgen receptor; in test [2]; at D(3) dopamine receptor; on Estrogen receptor; in test [3]) was > 30 µM in each case.

On to `CN1CCN(C2=Nc3ccccc3Sc3ccc(Cl)cc32)CC1` [CLOTHIAPINE], for which the AC50 in [1] is 0.01 µM; in test [4], > 30 µM; at Androgen receptor it was > 30 µM; in test [2] it was 0.42 µM; on D(3) dopamine receptor it was 0.0061 µM; in test [5] it was > 30 µM. The compound also showed an AC50 on Histamine H1 receptor of 0.02 µM.

With `CCOc1ccc(Cc2cc([C@@H]3O[C@H](CO)[C@@H](O)[C@H](O)[C@H]3O)ccc2Cl)cc1` [DAPAGLIFLOZIN], the AC50 (in test [1]; on Androgen receptor; in [2]; on D(3) dopamine receptor; at Estrogen receptor; in [5]) was > 30 µM each time. In addition, at Histamine H1 receptor, the AC50 was > 10 µM.

`CCOc1ccccc1C(N)=O` [ETHENZAMIDE]: the AC50 (in test [1]; at Androgen receptor; in [2]; on D(3) dopamine receptor; at Estrogen receptor; in test [3]) was > 30 µM throughout.

For the compound `CCOC(=O)/C=C1\SC(N2CCCCC2)C(=O)N1C` (stereo not given) [ETOZOLIN], the AC50 (in test [1]; on Androgen receptor; in test [2]; at D(3) dopamine receptor; at Estrogen receptor; in test [3]) was > 30 µM each time.

For the compound `CCCCOC(=O)C(=O)[C@H]1[C@H](C)C[C@H]2[C@@H]3C[C@H](F)C4=CC(=O)C=C[C@]4(C)[C@H]3[C@@H](O)C[C@@]21C` [FLUOCORTIN BUTYL], the AC50 was 13.1 µM in test [1]; 0.316 µM at Androgen receptor; 19.8 µM in [2]; > 30 µM on D(3) dopamine receptor; > 30 µM at Estrogen receptor; > 30 µM in test [3].

As to `N[C@H]1C(O)O[C@H](CO)[C@@H](O)[C@@H]1O` (stereo not given in full) [GLUCOSAMINE], the AC50 (in test [1]; on Androgen receptor; in [2]; on D(3) dopamine receptor; at Estrogen receptor; in [3]) was > 30 µM each time.

Take `C[N+]1(CCCCC[N+]2(C)CCCC2)CCCC1` [PENTOLINIUM]: the AC50 (in test [1]; at Androgen receptor; in [2]; at D(3) dopamine receptor; on Estrogen receptor; in test [3]) was > 30 µM each time.

For the compound `COc1cc([C@@H]2c3cc4c(cc3[C@H](O)[C@H]3COC(=O)[C@H]23)OCO4)cc(OC)c1OC` [PODOFILOX], the concentration at half-maximal activity (AC50) is 6.56 µM in [1], > 30 µM at Androgen receptor, > 30 µM on D(3) dopamine receptor and > 30 µM in test [3].

`O=[N+]([O-])c1cn2c(n1)OC[C@@H](OCc1ccc(OC(F)(F)F)cc1)C2` [PRETOMANID]: the AC50 was > 10 µM in [1]; > 30 µM on Androgen receptor; 10.6 µM in [2]; > 30 µM at D(3) dopamine receptor; > 30 µM on Estrogen receptor; > 30 µM in [5]. Moreover, the half-maximal activity concentration (AC50) on Histamine H1 receptor is > 10 µM.

In the case of `Nc1ccc2cc3ccc(N)cc3nc2c1` [PROFLAVINE], the AC50 at Androgen receptor is > 30 µM; at D(3) dopamine receptor, 22.9 µM; in [3], > 30 µM.

Take `CCN1CCCC1CNC(=O)c1cc(S(N)(=O)=O)ccc1OC` (stereo not given) [SULPIRIDE]: the AC50 (in test [1]; at Androgen receptor; in test [3]; in test [5]) was > 30 µM throughout.

For `OB1OCc2cc(F)ccc21` [TAVABOROLE], the AC50 (in test [1]; on Androgen receptor; in [2]; on D(3) dopamine receptor; on Estrogen receptor; in test [3]) was > 30 µM in each case.

For `CC(C)(C)NCC(O)COc1cccc2c1SCCC2` (stereo not given) [TERTATOLOL], the half-maximal activity concentration (AC50) (in test [1]; on Androgen receptor; in test [2]; on Estrogen receptor; in test [3]) was > 30 µM each time.

For the compound `O=C(Nc1ccc(Cl)cc1)Nc1ccc(Cl)c(Cl)c1` [TRICLOCARBAN], the AC50 was 2.44 µM in test [1]; > 30 µM on Androgen receptor; 0.702 µM in [2]; > 30 µM on D(3) dopamine receptor; > 30 µM on Estrogen receptor; > 30 µM in [5].

`CCOc1ccccc1OCC1CNCCO1` (stereo not given) [VILOXAZINE]: the AC50 (in test [1]; in test [4]; at Androgen receptor; in test [2]; on D(3) dopamine receptor; on Estrogen receptor) was > 30 µM throughout. For the same compound, the AC50 in test [3] is > 30 µM; on Histamine H1 receptor, > 10 µM.
